Assay results published in patent US11478466B2, “Small molecule promoting osteoblast differentiation” (Cornell University, priority 2019, dated 2022).

Tests used:
[1] = test system: primary human mesenchymal stem cells (hMSCs); test: In vitro mineralization assay (alizarin red) in hMSCs; type: cell-based; conditions: hMSCs in osteogenic medium, 10 μM from day 12 to 18, normalized to cell number
Method: To extend these observations to human osteoblast maturation, a quantitative assay was used to analyze mineralization in differentiating primary human mesenchymal stem cells (hMSCs). Bone marrow-derived hMSCs were cultured in unbiased growth medium for at least two passages and then cultured in osteogenic medium for 12 to 21 days and stained with alizarin red to identify a time window in which spontaneous mineralization first occurred (FIG. 4A). Subsequently, hMSCs in osteogenic medium were treated continuously with DIPQUO from day 12 to 18, stained and compared with equivalent DMSO treated controls, and then normalized to total cell numbers (FIG. 4B). DIPQUO-treated samples incorporated alizarin red in a molar ratio approximately 5 times greater than DMSO-treated samples (FIGS. 4C and 4D).
For mineralization studies, primary bone marrow-derived hMSCs (Lonza) were maintained and passaged in complete hMSC growth medium (Lonza). Cells were then switched to osteogenic medium (Lonza PT-3002) for 12 days, after which they were treated with DMSO or 10 μM DIPQUO for an additional 6 days. […] Staining was quantified using the Osteogenesis Quantitation kit (Millipore ECM815) following manufacturer's instructions. […] Absorbance was measured at 405 nm using an EMax Plus microplate reader and SoftMax Pro 7.0 software. […]

[2] = test system: adult zebrafish; test: Adult zebrafish caudal fin regeneration model; type: in vivo, Danio rerio; conditions: 15 μM in tank water, 26 h regeneration at 32° C., vs DMSO
Excerpt: We next tested the regenerative capabilities of zebrafish, which have a robust capacity to replace and renew organs and tissues derived from all three germ layers. Regenerating fin joints are reported to constitute a pre-osteoblast niche from which OSX-expressing (Sp7+) osteoblasts radiate de novo (Ando et al., 2017). Simultaneously, osteoblasts and osteogenic hypertrophic chondrocytes in both early and later stages of differentiation express collagen10 (col10a1) (Huycke et al., 2012).
Animals studies were performed according to protocols approved by the WCMC IACUC. Wildtype (AB/TU hybrid) zebrafish were maintained at 28.5° C. Larval fish were treated from 7 dpf to 8 dpf in tank water with DMSO or with a 24-hour pulse of 15 μM DIPQUO or inert analog BT344 or BT345, and were fixed at 9 dpf in 4% paraformaldehyde overnight rocking at 4° C. Fixed larvae were washed in PBS-0.1% Tween-20 (PBST), followed by 50% ethanol/50% PBST. Larvae were transferred to staining solution (66.5% ethanol, 100 mM MgCl2, 0.02% alizarin red) and incubated for 40 hours, rocking at room temperature in the dark. Larvae were washed in H2O+0.1% Tween-20, and excess stain removed by bleaching for approximately 10 minutes in the dark with a 1:1 mixture of 3% […] and 2% KOH. […] Images were acquired on a Zeiss LSM 800 confocal microscope and Sp7^+/col10a1^+ cells quantified using ImageJ.

[3] = test system: p38 MAPK; test: Western blotting of p38 MAPK in BRITER cells; type: cell-based, mouse; conditions: BMP-2/BMP-4 repression by tamoxifen
Method: (§1) Cells were maintained in DMEM with 10% FBS. For analysis of DIPQUO effects independent of BMP signaling, BMP-2 and BMP-4 knockdown was achieved by treating cells overnight with 1 μM 4-hydroxytamoxifen (4-OHT), followed by continued maintenance in 1 μM 4-OHT. Cells were serum-starved for at least 6 hours before treatment with recombinant BMP protein or DIPQUO as noted in figure legends.
(§2) Whole cell extracts were collected from C2C12 or BRITER cells in complete lysis buffer (20 mM Tris, 150 mM NaCl, 50 mM NaF, 1% NP40 substitute, HALT protease inhibitor cocktail (ThermoScientific). Proteins were resolved by electrophoresis on pre-cast 10% NuPage Bis-Tris gels (Invitrogen) and transferred to PVDF membranes (Bio-Rad). Membranes were blocked in 5% BSA-TBS-0.5% Tween-20 for 15 minutes, then incubated at 4° overnight with primary antibodies. Antibodies used were: rabbit anti-phospho-p38 MAPK (cat. no. 9211), anti-p38 MAPK XP (8690), anti-phospho-SMAD1/5 (9516), anti-SMAD1 XP (6944), anti-phospho-SMAD2/3 (8828), anti-SMAD2/3 XP (8685), anti-phospho-JNK (4668), anti-SAPK/JNK (9252), anti-phospho-Akt XP (4060), pan anti-Akt (4691), anti-phospho ERK p42/p44 (4377), anti-ERK p42/p44 (9102), anti-phospho-MKK3/6 (12280), anti-MKK3 (8535), anti-phospho-TAK1 (4531), anti-TAK1 (5206), anti-HA (3274), and anti-FLAG (14793); all from Cell Signaling); and mouse anti-p38α (cat. no. […]

[4] = test system: MKK3/6; test: Western blotting of MKK3/6 in BRITER cells; type: cell-based, mouse
Method: as §1, §2

SMILES: Cc1cc(C)c2[nH]c(=O)c(-c3[nH]cnc3-c3ccccc3)cc2c1 [RU-0226606, 6,8-dimethyl-3-(4-phenyl-1H-imidazol-5-yl)quinolin-2(1H)-one]
- alizarin red incorporation, molar ratio relative to DMSO-treated samples [1]: approximately 5 times
- number of Sp7+/Col10a1+ cells emanating from new fin ray joints [2]: significantly increased
- p38 MAPK activation in BRITER cells [3]: maintained the ability to activate p38 MAPK even under conditions of BMP repression
- phosphorylation of MKK3/6 [4]: stimulated rapid phosphorylation of MKK3/6
